pEC50, pIC50: −log10 of the molar value. Active and inactive are the calls of the source.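 Rule for the calls: active = compounds giving half or more protection of infected cells from virus-caused growth loss, again on retest; inactive = the rest.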 Where a SMILES comes first, the peptide text is derived from it. The star is where a group is joined. Boc = CC(C)(C)OC(=O)*; OSu = O=C1CCC(=O)N1O*
Tested on: CEM cells HIV-1 protection, formazan growth assay
Assay: NCI AIDS Antiviral Assay
Conditions: for pIC50: measured here: growth of uninfected CEM cells
Outline: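 Human CEM cells, uninfected and HIV-1-infected, received five drug concentrations, and growth was read by soluble formazan assay. Compounds giving at least 50% protection were retested; reproducible 100% protection defined confirmed active.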

Row | SMILES | outcome | pEC50 | pIC50
1 | C[C@H]1CCC2C(CN3CCCCC3)C(=O)OC2[C@]2(C)C(=O)CC(N3CCCCC3)C12O (stereo partly drawn) | inactive | – | –
2 | NCCC1(N)CCNCC1 | inactive | – | –
3 | O=[N+]([O-])C(/C=C(\Cl)[N+](=O)[O-])=C1Nc2ccccc2N1 | – | < 3.70 | 4.45
4 | CCc1cc(Cc2cc(CC)c(NC(=O)C3=CC(=O)CC(c4ccc(OC)cc4)O3)c(CC)c2Cl)c(Cl)c(CC)c1NC(=O)C1=CC(=O)CC(c2ccc(OC)cc2)O1 (stereo not drawn) | inactive | – | –
5 | O=C1CCC2(CC1CCSc1ccccc1)OCCO2 (stereo not drawn) | – | < 3.70 | 3.90
6 | C#CC1(O)CCC2C3CCC4=C(CCC(=O)C4)C3CCC21C (stereo not drawn) | – | 4.51 | 3.78
7 | COc1ccc(C2C=C(c3ccc(C)cc3)N(c3ccc(OC)cc3[N+](=O)[O-])C3C(=O)OC(=O)C23)c(OC)c1 (stereo not drawn) | – | < 3.70 | 4.50
8 | CN(C(=O)c1ccc(Cl)s1)C(=S)N(C)C(=O)c1ccc(Cl)s1 | – | < 3.92 | 3.94
9 | C=CCSc1nn(CC=C)cc2ncnc1-2 | – | < 3.70 | < 3.70
10 | CN1COc2ccc(Br)cc2C1 | inactive | – | –
11 | Cc1ccc(OCC2OC(n3cnc4c(Br)nc(Br)nc43)CC2Oc2ccc(C)cc2)cc1 (stereo not drawn) | – | < 3.70 | 5.68
12 | CC(C)=N.[C-]#[O+].[C-]#[O+].[C-]#[O+].[C-]#[O+].[C-]#[O+].[W] | – | < 4.86 | < 4.86
13 | CC1CCC2(CC1)CC(=O)N(N1CCCCC1)C2=O (stereo not drawn) | – | < 3.70 | < 3.70
14 | O=C1c2ccccc2C(=O)N1C/C=N/NS(=O)(=O)c1ccc(F)cc1 | – | < 3.44 | < 3.44
15 | Cn1c2ccccc2c(=O)c2c(O)cc3c(c21)C=CC1(CCCCC1)O3 | – | < 3.70 | < 3.70
16 | Cc1ccc(C)c(C[P+](c2ccccc2)(c2ccccc2)c2ccccc2)c1 | – | < 3.70 | 6.01
17 | O=C1c2ccccc2CCCCCCCCCCC12OCCCO2 | – | < 3.70 | < 3.70
18 | Cc1nn(C(=O)c2ccccc2O)c2c1C(c1ccco1)SC(N)=N2 (stereo not drawn) | – | < 4.70 | 5.91
19 | C=C(C)[C@@H]1CC[C@]2(CNC(=O)CC(C)(C)CC(=O)O)CC[C@]3(C)[C@H](CC[C@@H]4[C@@]5(C)CC[C@H](NC(=O)CC(C)(C)CC(=O)O)C(C)(C)[C@@H]5CC[C@]43C)[C@@H]12 | – | < 3.70 | 4.74
20 | COc1ccc(-c2coc3cc(OC)cc(O)c3c2=O)cc1 | – | < 3.70 | < 3.70
21 | CCN(CC)Cc1cc2[nH]c3c4ccc(Cl)cc4ncc3c2cc1OC (tested in a mixture with another compound) | – | < 4.00 | 6.34

Row | SMILES | outcome | pEC50 | pIC50
22 | NNC(=O)Cn1ccnn1 | – | < 3.70 | < 3.70
23 | COC1=NC(NC2OCC(O)C(O)C2O)=C(NC(C)=O)CN1C (stereo not drawn) | – | < 3.70 | < 3.70
24 | COc1ccc(-c2c(C#N)cnc(C)c2C)c(O)c1OC | – | < 3.20 | 3.94
25 | O=C(NC1CCCCCC1)C1C(=O)N(C2CCCCCC2)C(=O)/C1=N\O (stereo not drawn) | inactive | – | –
26 | COc1cc(OC)c2c(C)cc(=O)oc2c1 | – | < 3.70 | < 3.70
27 | CCN(CC)c1ccc(N=Nc2ccc(N=Nc3c(S(=O)(=O)O)cc4ccc(N)cc4c3O)c(OCCO)c2)cc1 | – | < 4.83 | < 4.83
28 | CC(=O)Nc1ccc(C2SCc3nc4ccccc4n32)cc1 (stereo not drawn) | – | < 3.70 | < 3.70
29 | N#C/C(N)=C(\C#N)NC=NCCO | – | < 3.70 | < 3.70
30 | CN(C)CC1CCCc2ccccc2C1=O (stereo not drawn) | inactive | – | –
31 | CC(=O)OC[C@H]1OC(=O)C2O[C@H](c3ccccc3)OC21 (stereo partly drawn) | – | < 3.70 | < 3.70
32 | Cc1ccc(N2C(=O)N(c3ccc(C)cc3)C3(SC=NN3C)C2=O)cc1 (stereo not drawn) | inactive | – | –
33 | CN(C)c1ccc(/C=C(\C#N)c2ccc(Br)cc2Br)cc1 | – | < 3.70 | 5.47
34 | CCOC(=O)NC(Nc1ccc(OC(F)(F)F)cc1)(C(F)(F)F)C(F)(F)F | – | < 3.70 | 3.98
35 | OCCCCCCCCCCCOc1ccc(C2OCC3(CC=CCC3)CO2)cc1 (stereo not drawn) | – | < 3.70 | 4.44
36 | O=C(Cc1nc2ccccc2o1)C(=O)Nc1ccccc1C(F)(F)F | inactive | – | –
37 | CC(=O)OC1(C)C=Cc2ccccc2/C1=N/S(=O)(=O)c1ccccc1 (stereo not drawn) | – | < 3.70 | 4.50
38 | Cc1c(Cl)cccc1NC(=O)C(=O)c1c(O)c2ccc(O)cc2oc1=O | – | < 4.02 | < 4.02
39 | O=C1OC2C(O)OC3COC(=O)c4cc(O)c(O)c(O)c4-c4c(O)c(O)c5oc(=O)c6c(c(O)c(O)c7oc(=O)c4c5c76)-c4c(cc(O)c(O)c4O)C(=O)OC3C2OC(=O)c2cc(O)c(O)c(O)c2-c2c1cc(O)c(O)c2O (stereo not drawn) | – | 6.14 | 4.67
40 | O=S(CCCl)c1c2ccccc2nc2ccccc12 (stereo not drawn) | – | < 3.70 | 4.51
41 | C=C1C(=O)[C@]23C[C@H]1CC(O)[C@H]2C1(CCC[C@@](C)(COC(C)=O)C1C=O)COC3=O (stereo partly drawn) | inactive | – | –
42 | N#C/C(=C\NC(=S)Nc1ccc(S(=O)(=O)Nc2nccs2)cc1)C(=O)c1ccc2ccccc2c1 | – | < 3.70 | 4.44

Row | SMILES | outcome | pEC50 | pIC50
43 | [C-]#[O+].[C-]#[O+].[C-]#[O+].[Mo].c1ccc([PH+](CC[As](c2ccccc2)c2ccccc2)CC[As](c2ccccc2)c2ccccc2)cc1 | inactive | – | –
44 | CC(C)(C)OC(=O)NC(Cc1ccc(O)cc1)C(=O)NC(CCCCN)C(=O)NC(Cc1ccc(O)cc1)C(=O)NC(CCCCN)C(=O)ON1C(=O)CCC1=O (stereo not drawn) (Boc-YKYK-OSu; configuration not given here) | – | < 4.00 | < 4.00
45 | Nc1nc(N)c(CCc2ccccc2)c(N)n1 | inactive | – | –
46 | C=C1CC(Cn2cc(C)c(=O)[nH]c2=O)(c2ccc(-c3ccccc3)cc2)OC1=O (stereo not drawn) | – | < 4.70 | 6.54
47 | O=c1n(CCCCn2c(=O)n(CC3CS3)c3ccccc32)c2ccccc2n1CC1CS1 (stereo not drawn) | – | < 4.54 | 5.04
48 | Cc1cc(C)nc(NS(=O)(=O)c2ccc(N=c3c4ccccc4n(C)c4ccccc34)cc2)n1 | inactive | – | –
49 | O=C(CCCN1CC=C(n2c(=O)[nH]c3ccccc32)CC1)c1ccc(F)cc1 | – | < 3.70 | 4.05
50 | O=C(NCCCNCCCCNCCCNC(=O)C(F)(F)F)C(F)(F)F | – | < 3.70 | 4.83
51 | CN(C)NC1=C([N+](=O)[O-])C=NN(c2ccccc2)C1 | – | < 4.56 | 6.33
52 | Cc1ccc(S(=O)(=O)c2c(O)c3ccccc3n(C)c2=O)cc1 | – | < 3.70 | < 3.70
53 | COC(=O)c1cc2c(nc1C)-c1ccccc1OS2(=O)=O | inactive | – | –
54 | O=S1(=O)c2ccccc2-c2ccccc21 | inactive | – | –
55 | Cn1ccnc1CCc1ccc(F)cc1F | – | < 3.70 | < 3.70
56 | CN(C)CCC(O)(Cc1ccccc1)c1cccc(Cl)c1 (stereo not drawn) | – | < 3.70 | 4.06
57 | O=C(NCP(=O)(Oc1ccccc1)Oc1ccccc1)OCc1ccccc1 | – | < 3.70 | 3.79
58 | O=C1[C@@H](O)[C@@H]2CCCC[C@@]23CCCN13 | – | < 3.70 | < 3.70
59 | S=C(Nc1ccccc1)Nc1[nH]c(=S)sc1-c1nc2ccccc2[nH]1 | – | < 5.73 | < 5.73
60 | CCOC(=O)CC(=O)N(c1ccc(OC)cc1)C(C(=O)OC)c1ccccc1 (stereo not drawn) | – | < 3.70 | 3.78
61 | CSC1=Nc2ccccc2-c2nc(-c3ccccc3)cc(-c3ccccc3)c2C1 | – | < 3.70 | < 3.70
